The values that follow are results of earlier work, collected in US20080311196A1, “All Day Rhinitic Condition Treatment Regimen” (priority 2006, published 2008).

The target of one data set is histamine H1-receptor (Homo sapiens, UniProt P35367). Particulars: E-isomer versus Z-isomer; fit in the histamine H1-receptor binding site.
histamine H1-receptor, sequence (P35367 whole entry, species assumed): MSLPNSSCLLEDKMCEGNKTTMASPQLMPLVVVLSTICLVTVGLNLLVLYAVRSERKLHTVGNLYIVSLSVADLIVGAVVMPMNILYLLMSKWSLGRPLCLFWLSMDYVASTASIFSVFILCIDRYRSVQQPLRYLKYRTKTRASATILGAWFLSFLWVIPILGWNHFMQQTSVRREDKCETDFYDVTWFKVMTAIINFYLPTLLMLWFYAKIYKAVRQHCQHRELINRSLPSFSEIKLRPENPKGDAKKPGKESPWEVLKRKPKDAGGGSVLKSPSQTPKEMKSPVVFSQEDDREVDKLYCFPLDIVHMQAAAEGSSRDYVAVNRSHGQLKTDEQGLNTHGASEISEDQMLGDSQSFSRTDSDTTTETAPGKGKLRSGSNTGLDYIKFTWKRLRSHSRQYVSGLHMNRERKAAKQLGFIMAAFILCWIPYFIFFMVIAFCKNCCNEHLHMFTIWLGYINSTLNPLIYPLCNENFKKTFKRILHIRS

Regarding E-triprolidine, at histamine H1-receptor, the “potency relative to Z-triprolidine” value is listed as “E-triprolidine, for example, is 1000-fold”.
On to `CN(C)CCC(c1ccc(Cl)cc1)c1ccccn1` (stereo not shown) [chlorpheniramine], for which the “time of maximal pharmacological sedation after dosing” value (after dosing) is listed as 3 to 4 hour. Under “following dosing, usually not longer than”, the “persistence of sedation following dosing” value is 6 to 8 h. In addition, the “duration of inhibition of the symptoms of rhinitis” value (single dose) was “more than 24 hours”.
